19 compounds from PubChem BioAssay AID256 (DTP/NCI, 2004) can be followed below.

In the assay the test system is CD2F1 mice, L1210 leukemia ip, survival T/C. Kind of assay: NCI In Vivo Anticancer Drug Screen. Data for tumor model L1210 Leukemia (intraperitoneal) in CD2F1 (CDF1) mice. As to conditions: higher = longer survival. The procedure, abridged:
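Read-out first: treated-group measurement over vehicle-control measurement, expressed as a ratio. Animals bore a transplanted tumor line and were dosed with compound or vehicle.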

Where [1] appears, read: endpoint: mean survival time, dose: 200.0 mg/kg/injection, schedule: Q01DX009 (ip), vehicle: saline.
Where [2] appears, read: endpoint: mean survival time, dose: 12.5 mg/kg/injection, schedule: Q04DX003 (ip), vehicle: saline with Tween-80.
[3] abbreviates: endpoint: mean survival time, dose: 25.0 mg/kg/injection, schedule: Q04DX003 (ip), vehicle: saline with Tween-80.
Where [4] appears, read: endpoint: mean survival time, dose: 100.0 mg/kg/injection, schedule: Q01DX001 (ip), vehicle: saline with Tween-80.
Setting [5] is: endpoint: mean survival time, dose: 100.0 mg/kg/injection, schedule: Q04DX003 (ip), vehicle: saline with Tween-80.
Setting [6] is: endpoint: mean survival time, dose: 200.0 mg/kg/injection, schedule: Q01DX001 (ip), vehicle: saline with Tween-80.
Where [7] appears, read: endpoint: mean survival time, dose: 200.0 mg/kg/injection, schedule: Q04DX003 (ip), vehicle: saline with Tween-80.
Setting [8] is: endpoint: mean survival time, dose: 100.0 mg/kg/injection, schedule: Q01DX009 (ip), vehicle: saline with Tween-80.
Setting [9] is: endpoint: mean survival time, dose: 100.0 mg/kg/injection, schedule: Q04DX003 (ip), vehicle: saline.
Where [10] appears, read: endpoint: mean survival time, dose: 200.0 mg/kg/injection, schedule: Q01DX009 (ip), vehicle: saline with Tween-80.
The mark [11] stands for this setting: endpoint: mean survival time, dose: 400.0 mg/kg/injection, schedule: Q04DX003 (ip), vehicle: saline with Tween-80.

Where “and” joins values, the source holds several entries; their conditions need not be identical. Identical values can stand only once. Toxic doses and inconclusive results are not listed.

Turning to `CC(C)C1NC(=O)C2CCCN2C1=O` (centres undefined), the T/C runs as follows: (endpoint: mean survival time, dose: 100.0 mg/kg/injection, schedule: Q01DX009 (ip), vehicle: saline sonified) 98 % of control; (endpoint: mean survival time, dose: 200.0 mg/kg/injection, schedule: Q01DX009 (ip), vehicle: saline sonified) 93 % of control; (endpoint: mean survival time, dose: 400.0 mg/kg/injection, schedule: Q01DX009 (ip), vehicle: saline sonified) 96 % of control.

For `CC/C(C)=C1\OC(=O)C(C)C(O)C(Cc2cccnc2)NC(=O)C(NC(=O)c2ncccc2O)C(C)OC1=O` (centres undefined), the T/C is 96 % of control (endpoint: mean survival time, dose: 3.13 mg/kg/injection, schedule: Q01DX009 (ip), vehicle: saline with Tween-80); 95 % of control (endpoint: mean survival time, dose: 6.25 mg/kg/injection, schedule: Q01DX009 (ip), vehicle: saline with Tween-80); 96 % of control (endpoint: mean survival time, dose: 12.5 mg/kg/injection, schedule: Q01DX009 (ip), vehicle: saline with Tween-80); 96 % of control (endpoint: mean survival time, dose: 25.0 mg/kg/injection, schedule: Q01DX009 (ip), vehicle: saline with Tween-80).

Turning to `CC1C2CCC(C2)C1CO` (centres undefined), the T/C is, setting by setting: (endpoint: mean survival time, dose: 50.0 mg/kg/injection, schedule: Q01DX009 (ip), vehicle: saline) 102 % of control; (endpoint: mean survival time, dose: 100.0 mg/kg/injection, schedule: Q01DX009 (ip), vehicle: saline) 98 % of control; under setting [1], 104 % of control.

For the compound `CCCCCCn1ncc(=O)[nH]c1=O`, the T/C is 101 % of control and 102 % of control (2×) (endpoint: mean survival time, dose: 12.5 mg/kg/injection, schedule: Q01DX009 (ip), vehicle: saline); 93 % of control and 98 % of control and 101 % of control (endpoint: mean survival time, dose: 25.0 mg/kg/injection, schedule: Q01DX009 (ip), vehicle: saline); 96 % of control under setting [1].

As for `COc1ccccc1[As](=O)(O)CC(O)COc1ccccc1` (centres undefined), the T/C (endpoint: mean survival time, dose: 6.25 mg/kg/injection, schedule: Q04DX003 (ip), vehicle: saline with Tween-80) is 103 % of control; the T/C under setting [2] was 104 % of control; the T/C under setting [3] is 113 % of control.

Take `Nc1nc(N)c(-c2ccc(Cl)c(Cl)c2)c(CP(Cl)(Cl)(Cl)Br)n1`: the T/C by setting is: (endpoint: mean survival time, dose: 12.5 mg/kg/injection, schedule: Q01DX009 (ip), vehicle: Klucel (hydroxypropylcellulose) (HPC)) 100 % of control; (endpoint: mean survival time, dose: 25.0 mg/kg/injection, schedule: Q01DX009 (ip), vehicle: Klucel (hydroxypropylcellulose) (HPC)) 94 % of control; (endpoint: mean survival time, dose: 50.0 mg/kg/injection, schedule: Q01DX009 (ip), vehicle: Klucel (hydroxypropylcellulose) (HPC)) 102 % of control; (endpoint: mean survival time, dose: 50.0 mg/kg/injection, schedule: Q01DX009 (ip), vehicle: saline with Tween-80) 160 % of control; under setting [4], 98 % of control; (endpoint: mean survival time, dose: 100.0 mg/kg/injection, schedule: Q01DX009 (ip), vehicle: Klucel (hydroxypropylcellulose) (HPC)) 88 % of control. Also, the T/C runs as follows: (endpoint: mean survival time, dose: 100.0 mg/kg/injection, schedule: Q04DX002 (ip), vehicle: saline with Tween-80) 94 % of control; under setting [5], 95 % of control; under setting [6], 90 % of control; (endpoint: mean survival time, dose: 200.0 mg/kg/injection, schedule: Q04DX002 (ip), vehicle: saline with Tween-80) 107 % of control; under setting [7], 100 % of control; (endpoint: mean survival time, dose: 400.0 mg/kg/injection, schedule: Q01DX001 (ip), vehicle: saline with Tween-80) 105 % of control. Besides, for the setting “endpoint: mean survival time, dose: 400.0 mg/kg/injection, schedule: Q04DX002 (ip), vehicle: saline with Tween-80”, the T/C is 100 % of control.

With `CCCCCCCCCCCCC/C=N/NC(=O)c1ccc[n+](C)c1`, the T/C was 93 % of control under setting [4] and 98 % of control under setting [6].

Turning to `NNC(=O)c1ccc([N+](=O)[O-])o1`, the T/C (endpoint: mean survival time, dose: 37.5 mg/kg/injection, schedule: Q01DX009 (ip), vehicle: saline with Tween-80) was 97 % of control and the T/C under setting [5] is 110 % of control.

For the compound `O=c1cc(C(F)(F)F)[nH]c2ccc(Br)cc12`, the T/C is 97 % of control under setting [2]; 95 % of control under setting [3]; 97 % of control (endpoint: mean survival time, dose: 50.0 mg/kg/injection, schedule: Q04DX003 (ip), vehicle: saline with Tween-80).

Turning to `O=C(O)C(F)(F)F`, the T/C is 100 % of control under setting [8]; 102 % of control under setting [9]; 103 % of control under setting [10]; 96 % of control (endpoint: mean survival time, dose: 200.0 mg/kg/injection, schedule: Q04DX003 (ip), vehicle: saline); 100 % of control (endpoint: mean survival time, dose: 400.0 mg/kg/injection, schedule: Q01DX009 (ip), vehicle: saline with Tween-80); 102 % of control (endpoint: mean survival time, dose: 400.0 mg/kg/injection, schedule: Q04DX003 (ip), vehicle: saline).

As for `CC(C)CCCC(C)C1CCC2C3CC=C4CC(C(=O)O)CCC4C3CCC12C` (centres undefined), the T/C runs as follows: under setting [5], 92 % of control; under setting [7], 88 % of control; under setting [11], 88 % of control.

For `CN(N=O)C(=O)NC1C(CO)OC2OC(C)(C)OC21` (centres undefined), the T/C is, setting by setting: (endpoint: mean survival time, dose: 100.0 mg/kg/injection, schedule: Q04DX003 (ip), vehicle: saline sonified) 94 % of control; (endpoint: mean survival time, dose: 132.0 mg/kg/injection, schedule: Q01DX009 (ip), vehicle: saline) 151 % of control; under setting [1], 198 % of control; (endpoint: mean survival time, dose: 200.0 mg/kg/injection, schedule: Q04DX003 (ip), vehicle: saline sonified) 100 % of control; (endpoint: mean survival time, dose: 300.0 mg/kg/injection, schedule: Q01DX009 (ip), vehicle: saline) 105 % of control; (endpoint: mean survival time, dose: 400.0 mg/kg/injection, schedule: Q04DX003 (ip), vehicle: saline sonified) 107 % of control.

Consider `CC(N)(CCC(=O)O)C(=O)O` (centres undefined), for which the T/C under setting [8] was 96 % of control and the T/C under setting [10] is 101 % of control.

Consider `O=C(O)/C=C/C(=O)NCc1ccco1`, for which the T/C is, setting by setting: under setting [5], 94 % of control; under setting [7], 94 % of control; under setting [11], 94 % of control.

`ClCCN(CCCl)c1ccc(N=Nc2ccc(Cl)cc2)cc1`: the T/C runs as follows: (endpoint: mean survival time, dose: 100.0 mg/kg/injection, schedule: Q01DX001 (ip), vehicle: Klucel (hydroxypropylcellulose) (HPC)) 94 % of control; (endpoint: mean survival time, dose: 200.0 mg/kg/injection, schedule: Q01DX001 (ip), vehicle: Klucel (hydroxypropylcellulose) (HPC)) 94 % of control; (endpoint: mean survival time, dose: 400.0 mg/kg/injection, schedule: Q01DX001 (ip), vehicle: Klucel (hydroxypropylcellulose) (HPC)) 97 % of control.

With `NCCCNC/C=C/CNCCCN`, the T/C by setting is: (endpoint: mean survival time, dose: 37.5 mg/kg/injection, schedule: Q01DX009 (ip), vehicle: saline) 98 % of control; (endpoint: mean survival time, dose: 75.0 mg/kg/injection, schedule: Q01DX009 (ip), vehicle: saline) 101 % of control; (endpoint: mean survival time, dose: 150.0 mg/kg/injection, schedule: Q01DX009 (ip), vehicle: saline) 101 % of control.

With `Cn1ncc2c1C(=O)c1nc(-c3ccccc3)c(-c3ccccc3)nc1C2=O`, the T/C is 98 % of control (endpoint: mean survival time, dose: 50.0 mg/kg/injection, schedule: Q04DX003 (ip), vehicle: saline) and 92 % of control under setting [9].

Turning to `[CH3][Sn]([CH3])([Br])[CH2]CCBr`, the T/C reads like this: (endpoint: mean survival time, dose: 0.39 mg/kg/injection, schedule: Q01DX009 (ip), vehicle: saline with Tween-80) 100 % of control; (endpoint: mean survival time, dose: 0.39 mg/kg/injection, schedule: Q01DX009 (ip), vehicle: saline) 90 % of control; (endpoint: mean survival time, dose: 0.78 mg/kg/injection, schedule: Q01DX009 (ip), vehicle: saline with Tween-80) 100 % of control; (endpoint: mean survival time, dose: 0.78 mg/kg/injection, schedule: Q01DX009 (ip), vehicle: saline) 90 % of control; (endpoint: mean survival time, dose: 1.56 mg/kg/injection, schedule: Q01DX009 (ip), vehicle: saline) 97 % of control.

Turning to `O=c1nc(N2CCCCCCC2)ccn1C1OC(CO)C(O)C1O` (centres undefined), the T/C runs as follows: (endpoint: median survival time, dose: 12.5 mg/kg/injection, schedule: Q01DX005 (ip), vehicle: water) 98 % of control; (endpoint: median survival time, dose: 25.0 mg/kg/injection, schedule: Q01DX005 (ip), vehicle: water) 98 % of control; (endpoint: median survival time, dose: 50.0 mg/kg/injection, schedule: Q01DX005 (ip), vehicle: water) 118 % of control; (endpoint: median survival time, dose: 100.0 mg/kg/injection, schedule: Q01DX005 (ip), vehicle: water) 112 % of control; (endpoint: median survival time, dose: 200.0 mg/kg/injection, schedule: Q01DX005 (ip), vehicle: water) 104 % of control.
